Assay results: paper PMC11547576, “Identification of a New Promising BAG3 Modulator Featuring the Imidazopyridine Scaffold” (Molecules, 2024)

Columns and labels:
BAG3-BD = molecular target: T1, BAG3-BD (Homo sapiens, UniProt O95817); assay: SPR assay on BAG domain of BAG3 (BAG3-BD); type: binding; conditions: Biacore T200, 0 to 100 µM, 25 °C, 1:1 interaction model, read-out: BAG DOMAIN KD (µM) ± SD
T1 construct: the BAG3 domain (BAG3-BD) was procured from ARETA International S.r.l; purchased ARETA International S.r.l; (Gerenzano, Italy)
T1 sequence (O95817 421-498 limits assumed): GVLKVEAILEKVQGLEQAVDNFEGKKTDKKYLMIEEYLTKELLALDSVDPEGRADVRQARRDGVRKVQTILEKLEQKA
Protocol: In this study, we employed SPR experiments to evaluate the interactions between synthesized compounds (1–14) and both the full-length BAG3 protein and its BAG domain. Only the compounds that successfully bound to the full-length BAG3 protein were tested for their interaction with the BAG domain. Protein immobilization was achieved using the amide coupling method, and the compounds were tested at ten different concentrations, ranging from 0 to 100 µM. A known binder of BAG3-BD, LK4 ((Z)-ethyl 2-(5-(3,4-dihydroxybenzylidene)-2,4-dioxothiazolidin-3yl)acetate), was used as a positive control. […] Compound 14 also bound the target but with slightly higher KD values, still within the micromolar range. The three identified compounds were further investigated to understand whether this binding induced an effect on BAG3 protein functions. The KD values reported in Table 1 for the known inhibitor LK4 differ from those in previous studies due to the use of a newer-generation instrument for the SPR experiments. The earlier experiments utilized the Biacore 3000, whereas the current study employed the Biacore T200. While ligand binding was confirmed in both sets of experiments, the slightly different KD values are attributed to the enhanced sensitivity of the Biacore T200.
Recombinant human BAG3 protein (Bcl2-associated athanogene 3) was sourced from Novus Biologicals (Littleton, CO, USA), while the BAG3 domain (BAG3-BD) was procured from ARETA International S.r.l. (Gerenzano, Italy). We utilized (Z)-ethyl 2-(5-(3,4-dihydroxybenzylidene)-2,4-dioxothiazolidin-3-yl)acetate (LK4), a known BAG3 inhibitor previously identified by our group. Surface Plasmon Resonance (SPR) spectroscopy was employed to assess the affinity of synthesized molecules for BAG3 and BAG-BD using a Biacore T200 optical biosensor equipped with CM5 sensor chips (Cytiva, Marlborough, MA, USA). BAG3 and BAG-BD were immobilized on the CM5 sensor chip using standard amine-coupling protocols. BAG3 protein (0.067 μg/μL in 10 mM CH3COONa, pH 4.5) was immobilized at a flow rate of 10 μL/min, resulting in a density of 14 kRU. The BAG3 domain (0.38 μg/μL in 10 mM CH3COONa, pH 4.5) was immobilized under similar conditions, achieving a density of 4 kRU. […]
Compounds 1–14 and LK4 were dissolved to 10 mM in 100% DMSO and then diluted 1:20 (v/v) in PBS-P buffer (0.2 M phosphate buffer, 27 mM KCl, 1.37 M NaCl, 0.5% surfactant P20) to achieve a final DMSO concentration of 5.0%. […] Changes in mass, reflected as resonance units (RU), were recorded to determine binding responses. KD values were calculated using Biaevaluation software 3.2 by globally fitting the double-referenced association and dissociation data to a 1:1 interaction model. […]

caspase 9 = assay: Caspase 9 determination by flow cytometry; type: cell-based, human; conditions: HeLa cells, 72 h, 50, 30 and 20 µM, vs control
Protocol: (§1) Furthermore, we investigated the expressions of caspases, key mediators of programmed cell death, in HeLa cells treated with compound 10 at the same concentrations used in the previous assays. […] To further confirm the pro-apoptotic mechanism induced by compound 10, Western blotting was performed to measure the expression and cleavage of caspase 3 [38, 39].
(§2) HeLa cells were seeded into 6-well plates (2.5 × 10^5 cells/well) and allowed to adhere for 24 h. The cells were then treated for 72 h with compound 10 at concentrations of 20, 30, and 50 µM, as well as with 0.1% DMSO negative (control), to assess caspase 3 and caspase 9 levels. After treatment, cells were collected, washed with PBS, and incubated at 4 °C first with a fixing buffer (containing 1% formaldehyde and 1% FBS in PBS) for 20 min, followed by permeabilization with fix perm solution (fixing buffer containing 0.1% Triton X-100) for 30 min. Next, the cells were incubated with anti-caspase 3 (1:500; SC-7272, Santa Cruz, CA, USA) and anti-caspase 9 (1:50; BS-0049R, Bioss Antibodies, Woburn, MA, USA) antibodies for 30 min at 4 °C. […] Cell fluorescence was then evaluated using a fluorescence-activated cell sorter (FACSscan, Becton Dickinson, Milan, Italy) and analyzed with Cell Quest software (4.0, Becton Dickinson, North Ryde, Australia). […]

HeLa cells = assay: Annexin V-FITC/PI staining apoptosis assay (FACS); type: cell-based, human; conditions: 72 h
Protocol: Given BAG3’s well-documented anti-apoptotic role, annexin V-FITC/PI staining was performed to evaluate the effects of compound 10 on cell apoptosis. […] Specifically, at 50 µM, 81.0 ± 3.89% of the cells were apoptotic (p < 0.001 vs. Ctrl); at 30 µM, 70.5 ± 4.56% were apoptotic (p < 0.01 vs. Ctrl); and at 20 µM, 51.5 ± 2.23% were apoptotic (p < 0.05 vs. Ctrl) (Figure 3A,B).
Apoptosis of the cells was assessed using the Annexin V-FITC/PI reagents. Hela cells (20 × 10^3) were seeded into 24-well plates and incubated for 72 h with compound 10. After treatment, the collected cells were resuspended in a 100 μL assay buffer, then 5 μL Annexin V-FITC and 1 μL PI reagents were added following an incubation for 20 min at RT according to the manufacturer’s protocol (Dead Cell Apoptosis Kits with Annexin V for Flow Cytometry, Thermo Fisher Scientific). The cells were analyzed with a Becton Dickinson FACScan flow cytometer using the Cell Quest software, version 4 (Franklin Lakes, NJ, USA). See Supplementary Materials for the data plots (Figure S54).

caspase 3 = assay: Caspase 3 determination by flow cytometry; type: cell-based, human; conditions: HeLa cells, 72 h, 50, 30 and 20 µM, vs control
Protocol: as §1, §2

CC(C)Nc1c(-c2ccccc2Br)nc2ccc(Cl)cn12 [Compound 10, 2-(2-bromophenyl)-6-chloro-N-isopropylimidazo[1,2-a]pyridin-3-amine]
Kd (BAG3-BD): 15.7 ± 1.44 µM
activation of caspase 9 (caspase 9): pronounced, dose-dependent activation
apoptotic cells (HeLa cells; 20 µM): 51.5 ± 2.23%
apoptotic cells (HeLa cells; 30 µM): 70.5 ± 4.56%
apoptotic cells (HeLa cells; 50 µM): 81.0 ± 3.89%
activation of caspase 3 (caspase 3): pronounced, dose-dependent activation
